Patent US11111238B2, “Coumarin derivatives, processes for their preparation and uses thereof for the treatment of cancer” (Lead Discovery Center GmbH, priority 2017, dated 2021)

How the values were obtained:
[1] = target: mitochondrial RNA-polymerase (POLRMT) (Mus musculus, UniProt Q8BKF1); test: Homogeneous TR-FRET assay for mitochondrial transcription activity; assay type: biochemical; details: homogeneous TR-FRET assay according to Example 4; activity class
In short: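 Mouse POLRMT, TFAM and TFB2M with linearized pUC-LSP template in 10 mM Tris-HCl pH 7.5, 10 mM MgCl2, 40 mM NaCl; compounds at 10 μM or serial dilution, 10 min RT preincubation. Started with 500 μM each […], 2 h RT; 407 bp RNA product detected by hybridized Eu-cryptate/ATTO647N probe TR-FRET (ex 340, em 665 nm).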

[2] = tested on: mitochondrial transcription (7S RNA) in HeLa cells; test: Quantitative real time-PCR assay of inhibition of mitochondrial transcription (cellular qPCR assay IMT); assay type: cell-based; details: Homo sapiens, 4 h compound incubation, qRT-PCR according to Example 5, activity class
Method: Quantitative real-time PCR (qRT-PCR), based on the TagMan™ (Thermo Fisher Scientific, Waltham Mass.) technology, was carried out essentially as described in (Heid et al., 1996). HeLa cells were plated one day before compound treatment in RPMI medium supplemented with 10% Fetal Calf Serum and 2 mM L-glutamine. Cells were incubated with dilution series of compounds or vehicle (DMSO) for 4 h, prior to harvest and extraction of the RNA using the RNeasy Mini Kit (Qiagen, Hilden D), according to the manufacturer's instructions. RNA concentrations were measured spectroscopically, using a NanoDrop-2000 (Thermo Fisher Scientific, Waltham Mass.) and normalized prior to cDNA synthesis, using a ‘High-Capacity cDNA Reverse Transcription Kit’ (Thermo Fisher Scientific, Waltham Mass.). qRT-PCR was carried out using the ‘TaqMan Fast Advance Master Mix’ (Thermo Fisher Scientific, Waltham Mass.) on a 7500 Fast Real-Time PCR machine (Applied Biosystems, Foster City Calif.)
For these measurements, three genes were used to compare the effect of the scrutinized compounds in relation to their concentration. The POLRMT-gene was used to detect potential influences on nuclear transcription. Mitochondrial transcription in vivo was monitored by measurements 7S RNA. The TBP (TATA-box binding protein) gene was employed as the control (housekeeping gene) during qRT-PCR. The short-lived mitochondrial 7S RNA, which is not post-transcriptionally stabilized, allowed us to monitor rapid changes in mitochondrial transcription activity following compound addition. Biological triplicates were analyzed using the comparative CT Method (ΔΔCt) method (Bubner and Baldwin, 2004) and reported as Rq % values (Rq=Relative quantification=2-ΔΔCt).

Sequence of mitochondrial RNA-polymerase (POLRMT) (Q8BKF1 42-1207): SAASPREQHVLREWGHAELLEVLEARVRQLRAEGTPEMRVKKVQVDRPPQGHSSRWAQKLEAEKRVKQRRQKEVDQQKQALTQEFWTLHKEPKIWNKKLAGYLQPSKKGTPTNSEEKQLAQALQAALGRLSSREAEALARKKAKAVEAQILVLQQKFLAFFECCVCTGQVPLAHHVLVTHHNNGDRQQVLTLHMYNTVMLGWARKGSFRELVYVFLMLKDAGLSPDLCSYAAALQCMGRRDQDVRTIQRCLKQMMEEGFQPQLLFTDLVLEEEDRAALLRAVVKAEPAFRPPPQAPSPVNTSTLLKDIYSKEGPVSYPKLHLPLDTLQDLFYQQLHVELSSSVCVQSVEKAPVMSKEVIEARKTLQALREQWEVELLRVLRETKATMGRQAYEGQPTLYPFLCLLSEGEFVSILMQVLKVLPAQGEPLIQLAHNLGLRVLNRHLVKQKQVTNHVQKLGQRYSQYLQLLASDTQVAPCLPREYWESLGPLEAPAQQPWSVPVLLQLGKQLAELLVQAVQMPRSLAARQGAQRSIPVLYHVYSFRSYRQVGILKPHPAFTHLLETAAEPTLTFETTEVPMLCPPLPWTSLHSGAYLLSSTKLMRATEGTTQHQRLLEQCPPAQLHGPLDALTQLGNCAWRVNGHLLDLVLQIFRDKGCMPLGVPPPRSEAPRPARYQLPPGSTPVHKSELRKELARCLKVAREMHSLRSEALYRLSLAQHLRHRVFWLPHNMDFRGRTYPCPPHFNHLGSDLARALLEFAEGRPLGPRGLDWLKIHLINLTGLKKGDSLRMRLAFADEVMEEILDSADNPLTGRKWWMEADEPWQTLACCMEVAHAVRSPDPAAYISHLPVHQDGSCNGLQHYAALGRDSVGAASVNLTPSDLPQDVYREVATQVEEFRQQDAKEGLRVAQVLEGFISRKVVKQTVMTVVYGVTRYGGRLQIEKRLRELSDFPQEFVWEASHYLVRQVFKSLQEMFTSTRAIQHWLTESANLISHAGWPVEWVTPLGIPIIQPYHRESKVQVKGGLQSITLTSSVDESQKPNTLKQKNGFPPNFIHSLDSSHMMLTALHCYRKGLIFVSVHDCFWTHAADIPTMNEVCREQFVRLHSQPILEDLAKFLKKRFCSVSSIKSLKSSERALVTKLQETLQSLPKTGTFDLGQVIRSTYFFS

With `CNC(=O)C[C@H]1CCCN(C(=O)[C@@H](C)Oc2ccc3c(-c4ccc(F)cc4Cl)cc(=O)oc3c2)C1` [Compound 128, 2-[(3R)-1-[(2R)-2-[4-(2-chloro-4-fluoro-phenyl)-2-oxo-chromen-7-yl]oxypropanoyl]-3-piperidyl]-N-methyl-acetamide] the IC50 [1] was less than 20 nM and the IC50 [2] was less than 10 nM.

In the case of `COC(=O)[C@H]1CN(C(=O)[C@@H](C)Oc2ccc3c(-c4ccc(F)cc4Cl)cc(=O)oc3c2)CCN1` [Compound 136, methyl (2R)-4-[(2R)-2-[4-(2-chloro-4-fluoro-phenyl)-2-oxo-chromen-7-yl]oxypropanoyl]piperazine-2-carboxylate], the IC50 [1] is reported as 20 to 100 nM and the IC50 [2] is reported as 10 to 50 nM.

In the case of `C[C@@H](Oc1ccc2c(-c3ccc(F)cc3Cl)cc(=O)oc2c1)C(=O)Nc1cccc(C(=O)O)c1` [Compound 139, 3-[[(2R)-2-[4-(2-chloro-4-fluoro-phenyl)-2-oxo-chromen-7-yl]oxypropanoyl]amino]benzoic acid], the IC50 [1] is reported as less than 20 nM and the IC50 [2] is reported as 50 to 500 nM.

`C[C@@H](Oc1ccc2c(-c3ccc(F)cc3Cl)cc(=O)oc2c1)C(=O)Nc1ccc(C(=O)O)cc1` [Compound 141, 4-[[(2R)-2-[4-(2-chloro-4-fluoro-phenyl)-2-oxo-chromen-7-yl]oxypropanoyl]amino]benzoic acid] gave an IC50 [1] of less than 20 nM and an IC50 [2] of 50 to 500 nM.

For `C[C@@H](Oc1ccc2c(-c3ccc(F)cc3Cl)cc(=O)oc2c1)C(=O)N1CC[C@H](CC(=O)O)C1` [Compound 145, 2-[(3R)-1-[(2R)-2-[4-(2-chloro-4-fluoro-phenyl)-2-oxo-chromen-7-yl]oxypropanoyl]pyrrolidin-3-yl]acetic acid], the IC50 [1] was 20 to 100 nM and the IC50 [2] was less than 10 nM.

For `C[C@@H](Oc1ccc2c(-c3ccc(F)cc3Cl)cc(=O)oc2c1)C(=O)N1CC[C@@H](CC(=O)O)C1` [Compound 147, 2-[(3S)-1-[(2R)-2-[4-(2-chloro-4-fluoro-phenyl)-2-oxo-chromen-7-yl]oxypropanoyl]pyrrolidin-3-yl]acetic acid], the IC50 [1] was less than 20 nM and the IC50 [2] was 10 to 50 nM.

For `COC(=O)c1cccc(NC(=O)[C@@H](C)Oc2ccc3c(-c4ccc(F)cc4Cl)cc(=O)oc3c2)n1` [Compound 149, methyl 6-[[(2R)-2-[4-(2-chloro-4-fluoro-phenyl)-2-oxo-chromen-7-yl]oxypropanoyl]amino]pyridine-2-carboxylate], the IC50 [1] was 20 to 100 nM and the IC50 [2] was 50 to 500 nM.

With `C[C@@H](Oc1ccc2c(-c3ccc(F)cc3Cl)cc(=O)oc2c1)C(=O)Nc1ccc(C(=O)O)cn1` [Compound 155, 6-[[(2R)-2-[4-(2-chloro-4-fluoro-phenyl)-2-oxo-chromen-7-yl]oxypropanoyl]amino]pyridine-3-carboxylic acid] the IC50 [1] was less than 20 nM and the IC50 [2] was less than 10 nM.

With `C[C@@H](Oc1ccc2c(-c3ccc(F)cc3Cl)cc(=O)oc2c1)C(=O)N1CC[C@H](C(=O)O)C1` [Compound 159, (3S)-1-[(2R)-2-[4-(2-chloro-4-fluoro-phenyl)-2-oxo-chromen-7-yl]oxypropanoyl]pyrrolidine-3-carboxylic acid] the IC50 [1] was 20 to 100 nM and the IC50 [2] was 500 to 5000 nM.

For `C=CC(=O)N1CCN(C(=O)[C@@H](C)Oc2ccc3c(-c4ccc(F)cc4Cl)cc(=O)oc3c2)CC1` [Compound 164, 4-(2-chloro-4-fluoro-phenyl)-7-[(1R)-1-methyl-2-oxo-2-(4-prop-2-enoylpiperazin-1-yl)ethoxy]chromen-2-one], the IC50 [1] was less than 20 nM and the IC50 [2] was less than 10 nM.

With `C=CC(=O)N[C@H]1CCCN(C(=O)[C@@H](C)Oc2ccc3c(-c4ccc(F)cc4Cl)cc(=O)oc3c2)C1` [Compound 165, N-[(3S)-1-[(2R)-2-[4-(2-chloro-4-fluoro-phenyl)-2-oxo-chromen-7-yl]oxypropanoyl]-3-piperidyl]prop-2-enamide] the IC50 [1] was less than 20 nM and the IC50 [2] was less than 10 nM.

With `C[C@@H](Oc1ccc2c(-c3ccc(F)cc3Cl)cc(=O)oc2c1)C(=O)N1CCN(C(=O)CCl)CC1` [Compound 166, (R)-4-(2-chloro-4-fluorophenyl)-7-((1-(4-(2-chloroacetyl)piperazin-1-yl)-1-oxopropan-2-yl)oxy)-2H-chromen-2-one] the IC50 [1] was less than 20 nM and the IC50 [2] was less than 10 nM.

For `C[C@@H](Oc1ccc2c(-c3ccc(F)cc3Cl)cc(=O)oc2c1)C(=O)N1CCC[C@H](NC(=O)CCl)C1` [Compound 167, 2-chloro-N-[(3S)-1-[(2R)-2-[4-(2-chloro-4-fluoro-phenyl)-2-oxo-chromen-7-yl]oxypropanoyl]-3-piperidyl]acetamide], the IC50 [1] was less than 20 nM and the IC50 [2] was less than 10 nM.

`CCC(=O)N1CCN(C(=O)[C@@H](C)Oc2ccc3c(-c4ccc(F)cc4Cl)cc(=O)oc3c2)CC1` [Compound 168, 4-(2-chloro-4-fluoro-phenyl)-7-[(1R)-1-methyl-2-oxo-2-(4-propanoylpiperazin-1-yl)ethoxy]chromen-2-one] showed an IC50 [1] of less than 20 nM and an IC50 [2] of less than 10 nM.

In the case of `CCC(=O)N[C@H]1CCCN(C(=O)[C@@H](C)Oc2ccc3c(-c4ccc(F)cc4Cl)cc(=O)oc3c2)C1` [Compound 169, N-[(3S)-1-[(2R)-2-[4-(2-chloro-4-fluoro-phenyl)-2-oxo-chromen-7-yl]oxypropanoyl]-3-piperidyl]propanamide], the IC50 [1] is reported as less than 20 nM and the IC50 [2] is reported as less than 10 nM.

`C[C@@H](Oc1ccc2c(-c3ccccc3Cl)cc(=O)oc2n1)C(=O)N1CCC[C@H](C(=O)O)C1` [Compound 172, (3S)-1-[(2R)-2-[4-(2-chlorophenyl)-2-oxo-pyrano[2,3-b]pyridin-7-yl]oxypropanoyl]piperidine-3-carboxylic acid] gave an IC50 [1] of 20 to 100 nM and an IC50 [2] of 50 to 500 nM.

`C[C@@H](Oc1ccc2c(-c3ccc(F)cc3Cl)cc(=O)oc2n1)C(=O)N1CCC[C@H](C(=O)O)C1` [Compound 173, (3S)-1-[(2R)-2-[4-(2-chloro-4-fluoro-phenyl)-2-oxo-pyrano[2,3-b]pyridin-7-yl]oxypropanoyl]piperidine-3-carboxylic acid] gave an IC50 [1] of 20 to 100 nM and an IC50 [2] of 50 to 500 nM.

For `Cc1ccsc1-c1cc(=O)oc2cc(O[C@H](C)C(=O)N3CCC[C@H](C(=O)O)C3)ccc12` [Compound 174, (3S)-1-[(2R)-2-[4-(3-methyl-2-thienyl)-2-oxo-chromen-7-yl]oxypropanoyl]piperidine-3-carboxylic acid], the IC50 [1] was 20 to 100 nM and the IC50 [2] was less than 10 nM.

With `Cc1ccsc1-c1cc(=O)oc2cc(O[C@H](C)C(=O)N3CCCCC3)ccc12` [Compound 177, 7-[(1R)-1-methyl-2-oxo-2-(1-piperidyl)ethoxy]-4-(3-methyl-2-thienyl)chromen-2-one] the IC50 [1] was 20 to 100 nM and the IC50 [2] was less than 10 nM.

In the case of `Cc1ccsc1-c1cc(=O)oc2cc(O[C@H](C)C(=O)NC(C)C)ccc12` [Compound 178, (2R)-N-isopropyl-2-[4-(3-methyl-2-thienyl)-2-oxo-chromen-7-yl]oxy-propanamide], the IC50 [1] is reported as 100 to 1000 nM and the IC50 [2] is reported as 10 to 50 nM.

In the case of `Cc1ccsc1-c1cc(=O)oc2cc(O[C@H](C)C(=O)N(C)C)ccc12` [Compound 179, (2R)-N,N-dimethyl-2-[4-(3-methyl-2-thienyl)-2-oxo-chromen-7-yl]oxy-propanamide], the IC50 [1] is reported as 100 to 1000 nM and the IC50 [2] is reported as 10 to 50 nM.

`CCOC(=O)C[C@H]1CCCN(C(=O)[C@@H](C)Oc2ccc3c(-c4sccc4C)cc(=O)oc3c2)C1` [Compound 180, ethyl 2-[(3R)-1-[(2R)-2-[4-(3-methyl-2-thienyl)-2-oxo-chromen-7-yl]oxypropanoyl]-3-piperidyl]acetate] gave an IC50 [1] of 20 to 100 nM and an IC50 [2] of less than 10 nM.
